# Measurements: patent US20250018049A1, “COMPOUNDS FOR DEGRADING CYCLIN-DEPENDENT KINASE 2 VIA UBIQUITIN PROTEOSOME PATHWAY” (NIKANG THERAPEUTICS, INC., priority 2020, published 2025)
# Tests used:
# CDK2 [1] = target: T1, CDK2 (Homo sapiens, UniProt P24941); assay: Phospho-Rb HTRF measurement in OVCAR3 cells (inhibition of CDK2); type: cell-based; set-up: High-Throughput Measurement of Cellular Endogenous CDK2; endogenous in cells; host or cells: OVCAR3; settings: pRB(S807/811) assay, 24 h compound treatment
# Method: Phosphorylation of RB protein at S780 and S807/811 were measured using HTRF phospho-RB cellular kits (Cat #64RBS780PEG and 64RBS807PEG) from Cisbio.
# On Day 1, OVCAR3 or KYSE520 cells were seeded into 96-well tissue-culture treated plates at 20,000 cells/well in 200 μL and incubated overnight at 37° C. in CO2 atmosphere. On Day 2, the cells were treated with test compounds at concentrations from 0.3 to 10,000 nM using HP D300 digital dispenser. Twenty-four hours after compound treatment, cell culture media was removed by flicking the plate and tapping the plate against clean paper towel. Immediately 30 μL 1× lysis buffer was supplemented from the kit and the plate was incubated at room temperature on shaker for 30 min. After homogenization by pipetting up and down, 8 μL cell lysate from 96-well cell culture plate was transferred to 384-well small volume white detection plate. 2 μL premixed detection solution was added and the plate was covered with sealer. To prepare the detection solution, d2 conjugated-phospho-RB antibody and Eu-cryptate conjugated phosphor-RB antibody were diluted into detection buffer following manufacturer's instruction. Detection plates were incubated for 4 h at room temperature and read on ClarioStar (BMG Labtech) in TR-FRET mode (665 nM and 620 nM). The TR-FRET ratio (665 nM/620 nM) was plotted against the compound concentration and normalized to DMSO controls. Half maximal inhibition concentration (IC50) values are calculated with a four-parameter logistic fit using GraphPad Prism (version 8; La Jolla, CA).
# CDK2 [2] = target: T1, CDK2; assay: NanoBRET CDK2 engagement assay; type: cell-based; set-up: expressed in transfected cells; settings: OVCAR3 cells with stable CDK2-Luciferase vector, 24 hours treatment
# Method: OVCAR3 cells with stable transfection of CDK2-Luciferase vector were seeded into 96-well plate at a density of 20,000 cells per well, 50 μL Opti-MEM medium supplemented with 1% FBS. Following morning, cells were treated with compounds of the disclosure, with starting concentration at 3 μM and ½ log dilution down to 0.3 nM for 24 hours at 37° C. DMSO treatment serves as control. Compound engagement was then measured using NanoBRE™ Kinase Kit from Promega (Part Number: CS1810C122, NanoBRET™ TE Kinase Kit #10, 1K) following manufacturer's instruction. For 24 hours treatment, tracer was added only for the last 2 hours. Briefly, 2.5 μL of complete 20× NanoBRET Tracer was added to the cells in suspension. Immediately prior to BRET measurements, prepare 3× Complete NanoBRET® Nano-Glo® Substrate in Opti-MEM without serum and phenol red. Without any delay, 25 μL per well of 3× Complete NanoBRET™ Nano-Glo® Substrate for a 96-well plate was added and mixed well. Signal was then read on a CLARIOstar® plate reader (measure donor emission (e.g., 450 nm) and acceptor emission (e.g., 610 nm or 630 nm) using a NanoBRET™-compatible luminometer. Target engagement was calculated with DMSO treatment as 100% signal, and IC50 was calculated by GraphPad Prism 9.
Compound,IC50 (CDK2 [1]) [nM],IC50 (CDK2 [2]) [nM]
"CN1C(=O)CCC(N2C(=O)c3cccc(OCC(=O)NCCOCCN4CCN(S(=O)(=O)N5CCC(Nc6ncc7ccc(=O)n(C8CCCC8)c7n6)CC5)CC4)c3C2=O)C1=O (stereo not shown) [compound 5, N-(2-(2-(4-((4-((8-cyclopentyl-7-oxo-7,8-dihydropyrido[2,3-d]pyrimidin-2-yl)amino)-piperidin-1-yl)sulfonyl)piperazin-1-yl)-ethoxy)ethyl)-2-((2-(1-methyl-2,6-dioxo-piperidin-3-yl)-1,3-dioxoisoindolin-4-yl)oxy)acetamide]",5860,4110
"O=C(COc1cccc2c1C(=O)N(C1CCC(=O)NC1=O)C2=O)NCCOCCOCCOCCOCCN1CCN(S(=O)(=O)N2CCC(Nc3ncc4ccc(=O)n(C5CCCC5)c4n3)CC2)CC1 (stereo not shown) [compound 6, N-(14-(4-((4-((8-cyclopentyl-7-oxo-7,8-dihydro-pyrido[2,3-d]pyrimidin-2-yl)amino)-piperidin-1-yl)sulfonyl)piperazin-1-yl)-3,6,9,12-tetraoxatetradecyl)-2-((2-(2,6-dioxopiperidin-3-yl)-1,3-dioxoisoindolin-4-yl)oxy)acetamide]",2250,1670
"O=C1CCC(N2C(=O)c3cccc(CCCOCCOCCNS(=O)(=O)N4CCC(Nc5ncc6ccc(=O)n(C7CCCC7)c6n5)CC4)c3C2=O)C(=O)N1 (stereo not shown) [Compound 11, 4-((8-cyclopentyl-7-oxo-7,8-dihydropyrido[2,3-d]pyrimidin-2-yl)amino)-N-(2-(2-(3-(2-(2,6-dioxopiperidin-3-yl)-1,3-dioxoisoindolin-4-yl)-propoxy)ethoxy)ethyl)piperidine-1-sulfonamide]",2060,499
"O=C1CCC(N2C(=O)c3cc(F)c(N4C5CCC4CN(Cc4cccc(S(=O)(=O)N6CCC(Nc7ncc8ccc(=O)n(C9CCCC9)c8n7)CC6)c4)C5)cc3C2=O)C(=O)N1 (stereo not shown) [Compound 47, 5-(3-(3-((4-((8-cyclopentyl-7-oxo-7,8-dihydro-pyrido[2,3-d]pyrimidin-2-yl)amino)piperidin-1-yl)sulfonyl)benzyl)-3,8-diazabicyclo[3.2.1]octan-8-yl)-2-(2,6-dioxopiperidin-3-yl)-6-fluoro-isoindoline-1,3-dione]",4030,590
"N#Cc1cc2cnc(NC3CCN(S(=O)(=O)c4cccc(CN5CCN(c6cc7c(cc6F)C(=O)N(C6CCC(=O)NC6=O)C7=O)CC5)c4)CC3)nc2n(C2CCCC2)c1=O (stereo not shown) [Compound 46, 8-cyclopentyl-2-((1-((3-((4-(2-(2,6-dioxopiperidin-3-yl)-6-fluoro-1,3-dioxoisoindolin-5-yl)piperazin-1-yl)methyl)phenyl)sulfonyl)piperidin-4-yl)-amino)-7-oxo-7,8-dihydropyrido[2,3-d]-pyrimidine-6-carbonitrile]",2920,2160
"O=C(COc1cccc2c1C(=O)N(C1CCC(=O)NC1=O)C2=O)NCCOCCOCCN1CCN(S(=O)(=O)N2CCC(Nc3ncc4ccc(=O)n(C5CCCC5)c4n3)CC2)CC1 (stereo not shown) [compound 2, N-(2-(2-(2-(4-((4-((8-cyclopentyl-7-oxo-7,8-dihydropyrido[2,3-d]pyrimidin-2-yl)amino)-piperidin-1-yl)sulfonyl)piperazin-1-yl)-ethoxy)ethoxy)ethyl)-2-((2-(2,6-dioxo-piperidin-3-yl)-1,3-dioxoisoindolin-4-yl)-oxy)acetamide]",1280,1310
"O=C1CCC(N2C(=O)c3cccc(NCCOCCOCCNS(=O)(=O)N4CCC(Nc5ncc6ccc(=O)n(C7CCCC7)c6n5)CC4)c3C2=O)C(=O)N1 (stereo not shown) [Compound 9, 4-((8-cyclopentyl-7-oxo-7,8-dihydropyrido[2,3-d]-pyrimidin-2-yl)amino)-N-(2-(2-(2-((2-(2,6-dioxopiperidin-3-yl)-1,3-dioxoisoindolin-4-yl)-amino)ethoxy)ethoxy)ethyl)piperidine-1-sulfonamide]",1810,675
"O=C1CCC(N2C(=O)c3cccc(NC(=O)COCCOCCOCCOCCNS(=O)(=O)N4CCC(Nc5ncc6ccc(=O)n(C7CCCC7)c6n5)CC4)c3C2=O)C(=O)N1 (stereo not shown) [Compound 26, 14-((4-((8-cyclopentyl-7-oxo-7,8-dihydro-pyrido[2,3-d]pyrimidin-2-yl)amino)piperidine)-1-sulfonamido)-N-(2-(2,6-dioxopiperidin-3-yl)-1,3-dioxoisoindolin-4-yl)-3,6,9,12-tetraoxatetradecan-amide]",6090,

# Molecules with a lower IC50 (CDK2 [1]), results first:
IC50 (CDK2 [1]) [nM],IC50 (CDK2 [2]) [nM],Compound
1120,99.9,"O=C1CCC(N2C(=O)c3ccc(N4CC(Oc5ccc(S(=O)(=O)N6CCC(Nc7ncc8ccc(=O)n(C9CCCC9)c8n7)CC6)cc5)C4)cc3C2=O)C(=O)N1 (stereo not shown) [compound 7, 5-(3-(4-((4-((8-cyclopentyl-7-oxo-7,8-dihydro-pyrido[2,3-d]pyrimidin-2-yl)amino)piperidin-1-yl)sulfonyl)phenoxy)azetidin-1-yl)-2-(2,6-dioxopiperidin-3-yl)isoindoline-1,3-dione]"
1070,,"O=C1CCC(N2C(=O)c3cccc(NCCOCCOCCOCCNCCCS(=O)(=O)N4CCC(Nc5ncc6ccc(=O)n(C7CCCC7)c6n5)CC4)c3C2=O)C(=O)N1 (stereo not shown) [Compound 25, 4-((15-((4-((8-cyclopentyl-7-oxo-7,8-dihydro-pyrido[2,3-d]pyrimidin-2-yl)amino)piperidin-1-yl)sulfonyl)-3,6,9-trioxa-12-azapentadecyl)-amino)-2-(2,6-dioxopiperidin-3-yl)isoindoline-1,3-dione]"
700,188,"Cn1c(=O)n(C2CCC(=O)NC2=O)c2cccc(CCCOCCNS(=O)(=O)N3CCC(Nc4ncc5ccc(=O)n(C6CCCC6)c5n4)CC3)c21 (stereo not shown) [Compound 18, 4-((8-cyclopentyl-7-oxo-7,8-dihydropyrido[2,3-d]pyrimidin-2-yl)amino)-N-(2-(3-(1-(2,6-dioxopiperidin-3-yl)-3-methyl-2-oxo-2,3-dihydro-1H-benzo[d]imidazol-4-yl)propoxy)-ethyl)piperidine-1-sulfonamide]"
405,,"CC1(O)CCCC1n1c(=O)ccc2cnc(NC3CCN(S(=O)(=O)c4cccc(CN5CCN(c6cc7c(cc6F)C(=O)N(C6CCC(=O)NC6=O)C7=O)CC5)c4)CC3)nc21 (stereo not shown) [Compound 44, 2-(2,6-dioxopiperidin-3-yl)-5-fluoro-6-(4-(3-((4-((8-(2-hydroxy-2-methylcyclopentyl)-7-oxo-7,8-dihydropyrido[2,3-d]pyrimidin-2-yl)amino)-piperidin-1-yl)sulfonyl)benzyl)piperazin-1-yl)-isoindoline-1,3-dione]"
355,425,"Cn1c(=O)n(C2CCC(=O)NC2=O)c2cccc(C3CCN(C4CN(c5cccc(S(=O)(=O)N6CCC(Nc7ncc8ccc(=O)n(C9CCCC9)c8n7)CC6)c5)C4)CC3)c21 (stereo not shown) [Compound 72, 3-(4-(1-(1-(3-((4-((8-cyclopentyl-7-oxo-7,8-dihydropyrido[2,3-d]pyrimidin-2-yl)amino)-piperidin-1-yl)sulfonyl)phenyl)azetidin-3-yl)piperidin-4-yl)-3-methyl-2-oxo-2,3-dihydro-1H-benzo[d]imidazol-1-yl)piperidine-2,6-dione]"
313,,"O=C1CCC(N2Cc3cc(N4CCC(Oc5cccc(S(=O)(=O)N6CCC(Nc7ncc8ccc(=O)n(C9CCCC9)c8n7)CC6)c5)CC4)ccc3C2=O)C(=O)N1 (stereo not shown) [Compound 33, 3-(5-(4-(3-((4-((8-cyclopentyl-7-oxo-7,8-dihydro-pyrido[2,3-d]pyrimidin-2-yl)amino)piperidin-1-yl)sulfonyl)phenoxy)piperidin-1-yl)-1-oxoiso-indolin-2-yl)piperidine-2,6-dione]"
100,,"O=C1CCC(N2Cc3cc(N4CC(Oc5cccc(S(=O)(=O)N6CCC(Nc7ncc8ccc(=O)n(C9CCCC9)c8n7)CC6)c5)C4)ccc3C2=O)C(=O)N1 (stereo not shown) [Compound 74, 3-(5-(3-(3-((4-((8-cyclopentyl-7-oxo-7,8-dihydro-pyrido[2,3-d]pyrimidin-2-yl)amino)piperidin-1-yl)sulfonyl)phenoxy)azetidin-1-yl)-1-oxoisoindolin-2-yl)piperidine-2,6-dione]"
